Data on 16 compounds can be found in ChEMBL document CHEMBL5352385, “Marine natural products and their synthetic analogs as promising antibiofilm agents for antibiotics discovery and development” (Eur J Med Chem, 2022).

Assay type in all cases: functional
One test concerns Listeria monocytogenes. Put plainly: Antibiofilm activity against Listeria monocytogenes ATCC 19111 at 256 ug/ml relative to control. The settings on record: dose 256 µg/ml.
Test [1] concerns Staphylococcus epidermidis. Put plainly: Antibiofilm activity against Staphylococcus epidermidis RP62A at 256 ug/ml relative to control. The following applies: dose 256 µg/ml.
For a further test, the system named is Serratia marcescens. Put plainly: Antibiofilm activity against Serratia marcescens at 30 ug/ml relative to control. The following applies: dose 30 µg/ml.
In test [2] the test system is Pseudomonas aeruginosa. The experiment in a line: Antibiofilm activity against Pseudomonas aeruginosa PA01 assessed as inhibition of biofilm formation at 800 ug/ml relative to control. Also noted: scale not given: the % may be the effect or the level left. The settings on record: dose 800 µg/ml.
Test [3] concerns Staphylococcus aureus. Put plainly: Antibiofilm activity against Staphylococcus aureus ATCC 6538 at 12.5 ug/ml relative to control. The following applies: dose 12.5 µg/ml.
Test [4] deals with Staphylococcus aureus. The experiment in a line: Antibiofilm activity against Staphylococcus aureus ATCC 25923 at 8 to 16 ug/ml incubated for 24 hrs by crystal violet staining based analysis relative to control. The settings on record: dose 8-16 µg/ml, at 8 to 16 µg/mL.
Test [5] concerns Bacillus subtilis. The experiment in a line: Antibiofilm activity against Bacillus subtilis ATCC 6633 at 8 to 16 ug/ml incubated for 24 hrs by crystal violet staining based analysis relative to control. The following applies: dose 8-16 µg/ml, at 8 to 16 µg/mL.
Test [6] deals with Staphylococcus aureus. Put plainly: Antibiofilm activity against Staphylococcus aureus B1 at 8 to 16 ug/ml incubated for 24 hrs by crystal violet staining based analysis relative to control. The following applies: dose 8-16 µg/ml, at 8 to 16 µg/mL.
The next test deals with Enterococcus faecalis. Put plainly: Antibiofilm activity against Enterococcus faecalis W1 at 8 to 16 ug/ml incubated for 24 hrs by crystal violet staining based analysis relative to control. The settings on record: dose 8-16 µg/ml, at 8 to 16 µg/mL.
Test [7] has as its system Staphylococcus aureus. Put plainly: Antibiofilm activity against methicillin-resistant Staphylococcus aureus CH 10850 at 33.2 ug/ml relative to control. The settings on record: dose 33.2 µg/ml.
The test system of a further test is Vibrio anguillarum. The experiment in a line: Antibiofilm activity against Vibrio anguillarum at 300 ug/ml relative to control. The following applies: dose 300 µg/ml.
The subject of test [8] is Pseudomonas aeruginosa. The experiment in a line: Antibiofilm activity against Pseudomonas aeruginosa at 300 ug/ml relative to control. The following applies: dose 300 µg/ml.
The subject of test [9] is Bacillus subtilis. The experiment in a line: Antibiofilm activity against Bacillus subtilis at 300 ug/ml relative to control. The settings on record: dose 300 µg/ml.
In a further test the test system is Bacillus sp. The experiment in a line: Antibiofilm activity against Bacillus sp. 176 at 300 ug/ml relative to control. The following applies: dose 300 µg/ml.
The next test concerns Bacillus pumilus. Put plainly: Antibiofilm activity against Bacillus pumilus TiO1 assessed as inhibition of biofilm formation at 12.5 ug/ml by microdilution plate method relative to control. Also noted: scale not given: the % may be the effect or the level left. The settings on record: dose 12.5 µg/ml.
For test [10], the system named is Pseudomonas aeruginosa. The experiment in a line: Antibiofilm activity against Pseudomonas aeruginosa PA01 assessed as inhibition of biofilm formation at 25 ug/ml by microdilution plate method relative to control. Also noted: scale not given: the % may be the effect or the level left. The settings on record: dose 25 µg/ml. For orientation: Broth dilution looks for growth in wells or tubes with falling amounts of substance.

The test system of test [11] is Candida albicans. Put plainly: Antibiofilm activity against Candida albicans BH assessed as inhibition of biofilm formation at 25 ug/ml by microdilution plate method relative to control. The following applies: dose 25 µg/ml. Also noted: scale not given: the % may be the effect or the level left.
Test [12] deals with Pseudomonas aeruginosa. Put plainly: Antibiofilm activity against Pseudomonas aeruginosa PA01 assessed as inhibition of biofilm formation at 100 ug/ml by microdilution plate method relative to control. Also noted: scale not given: the % may be the effect or the level left. The settings on record: dose 100 µg/ml.
The test system of test [13] is Candida albicans. Put plainly: Antibiofilm activity against Candida albicans assessed as reduction in biofilm formation at >200 ug/ml measured after 48 hrs by crystal violet staining based analysis relative to control. The following applies: dose > 200 µg/ml. Also noted: scale not given: the % may be the effect or the level left.
Test [14] concerns Streptococcus mutans. The experiment in a line: Antibiofilm activity against clinical isolates Streptococcus mutans assessed as inhibition of biofilm formation at 3.0 ug/ml relative to control. Also noted: scale not given: the % may be the effect or the level left. The following applies: dose 3 µg/ml.
In test [15] the test system is Streptococcus mutans. The experiment in a line: Antibiofilm activity against Streptococcus mutans UA159 assessed as inhibition of biofilm formation at 3.0 ug/ml relative to control. Also noted: scale not given: the % may be the effect or the level left. The settings on record: dose 3 µg/ml.
The subject of test [16] is Pseudomonas aeruginosa. Put plainly: Antibiofilm activity against Pseudomonas aeruginosa at 100 ug/ml relative to control. The following applies: dose 100 µg/ml.
Test [17] relates to Staphylococcus aureus. The experiment in a line: Antibiofilm activity against Staphylococcus aureus at 100 ug/ml relative to control. The following applies: dose 100 µg/ml.
Test [18] relates to Pseudomonas aeruginosa. Put plainly: Antibiofilm activity against Pseudomonas aeruginosa assessed as inhibition of biofilm formation at 90 ug/ml incubated for 24 hrs by crystal violet staining based analysis relative to control. Also noted: scale not given: the % may be the effect or the level left. The settings on record: dose 90 µg/ml.
Test [19] relates to Pseudomonas aeruginosa. The experiment in a line: Antibiofilm activity against Pseudomonas aeruginosa FSPA02 at 75 ug/ml by crystal violet staining based confocal microscopy analysis relative to control. The settings on record: dose 75 µg/ml.
In test [20] the test system is Staphylococcus aureus. Put plainly: Antibiofilm activity against methicillin-sensitive Staphylococcus aureus ATCC 35556 incubated for 24 hrs.
Test [21] relates to Staphylococcus aureus. Put plainly: Antibiofilm activity against methicillin-resistant Staphylococcus aureus ATCC 43866 incubated for 24 hrs.
For test [22], the system named is Staphylococcus epidermidis. Put plainly: Antibiofilm activity against […] incubated for 24 hrs.
The test system of test [23] is Candida albicans. Put plainly: Antibiofilm activity against Candida albicans assessed as inhibition of biofilm formation at 400 ug/ml by microbroth dilution assay relative to control. Also noted: scale not given: the % may be the effect or the level left. The following applies: dose 400 µg/ml.
Another test concerns Escherichia coli. The experiment in a line: Antibiofilm activity against Escherichia coli at 50.9 ug/ml relative to control. The settings on record: dose 50.9 µg/ml.
For test [24], the system named is Acinetobacter baumannii. Put plainly: Antibiofilm activity against Acinetobacter baumannii ATCC 19606 assessed as reduction in biofilm formation incubated for 24 hrs by crystal violet staining based analysis.
The test system of test [25] is Acinetobacter baumannii. The experiment in a line: Antibiofilm activity against Acinetobacter baumannii ATCC […] assessed as reduction in biofilm formation incubated for 24 hrs by crystal violet staining based analysis.

Where a SMILES comes first, the peptide text is derived from it. [ ]: non-standard residue; d: D form. The star is where a group is joined. ξ: configuration not given here. ξGly(tetradecyl) = CCCCCCCCCCCCCCC(N)C(=O)O; X2 = CCCCCCCCC(O)CC(=O)O* Bounds are passed on as bounds.

In the case of `CC(C)C[C@@H]1NC(=O)[C@@H]2CCCN2C1=O`, the results for the Activity (in the test with Listeria monocytogenes; in test [1]; in the test with Serratia marcescens) were 86.9%, 82% and 53.5%, respectively.
Take `CC(=O)NCCc1ccc(O)cc1`: the Activity in the test on Pseudomonas aeruginosa [2] stood at 28%.
Turning to `CC1=C2C(=CO[C@H](C)[C@H]2C)C(O)=C(C(=O)O)C1=O` [CITRININ], the Activity in the test with Staphylococcus aureus [3] is recorded as above 50%.
As for `C=C1CC[C@H]2[C@@](C)(CC[C@H]3C(C)(C)[C@@H](OC(C)=O)CC[C@]23C)[C@@H]1Cc1c(O)cc(C)oc1=O`, the Activity in the test on Staphylococcus aureus [4], in the test with Bacillus subtilis [5], with Staphylococcus aureus [6] and in the test with Enterococcus faecalis was 100% throughout.
In the test with Staphylococcus aureus [7], `CC(=O)O[C@@H]1O[C@H]2OC(=O)C3=C(C)[C@@](C)([C@@]4(C)CCCC(C)(C)C4)CC[C@@H]1[C@H]32` had an Activity of 50%.
`CCCCCCCCCCCCCCC1NC(=O)C(C(C)CC)NC(=O)C(CC(C)C)NC(=O)C(CC(=O)OC)NC(=O)C(CC(C)C)NC(=O)C(CC(C)C)NC(=O)C(CC(C)C)NC(=O)C(CCC(=O)OC)NC1=O` (configuration not stated) (cyclo([ξGly(tetradecyl)]E(OMe)LLLD(OMe)LI); configuration not given here): the Activity with Vibrio anguillarum, in the test with Pseudomonas aeruginosa [8], in the test with Bacillus subtilis [9] and with Bacillus sp. was above 50% throughout.
As for `CCCCCCCCCCCCCCCC(=O)OC[C@H]1O[C@H](O)[C@H](O)[C@@H](O)[C@@H]1O`, the Activity in the test with Bacillus pumilus was above 50%; in the test on Pseudomonas aeruginosa [10] it was above 50%; in the test on Candida albicans [11], above 50%; in the test on Pseudomonas aeruginosa [12], above 70%.
`C/C=C/CCCC(C)/C(O)=C1\C(=O)[C@H](C(C)O)N(C)C1=O` (some centres not stated): the Activity with Candida albicans [13] turned out to be 80%.
As to `C[C@H](CC[C@H](C)C(C)(C)C)[C@H]1CC[C@H]2C3C[C@H](OS(=O)(=O)[O-])[C@H]4C[C@H](OS(=O)(=O)[O-])[C@@H](OS(=O)(=O)[O-])C[C@]4(C)[C@H]3CC[C@]12C.[Na+].[Na+].[Na+]` (some centres not stated), the results for the Activity in the test on Streptococcus mutans [14] and in the test with Streptococcus mutans [15] were 85.2% and 99.5%, respectively.
As to `CCCC/C=C\CCCCCCCCCCCC=O`, the Activity was found to be 82.657% with Pseudomonas aeruginosa [16] and 78.973% with Staphylococcus aureus [17].
In the case of `CC(C)CC(=O)NCCc1ccccc1`, the Activity in the test with Pseudomonas aeruginosa [18] was above 40%.
`CCCCCCCCC(O)CC(=O)OC(=O)C(Cc1ccccc1)NC(=O)C(CC(C)C)NC(=O)C(CC(C)C)NC(=O)C(NC(=O)C(CC(=O)O)NC(=O)C(CC(C)C)NC(=O)C(N)CC(C)C)C(C)C` (configuration not stated) (H-LLDVLLF-X2; configuration not given here) had an Activity in the test on Pseudomonas aeruginosa [19] of 90%.
`Cn1c(-c2nnc(-c3ccc(Cl)cc3Cl)o2)cc(Br)c1Br`: the MBIC in the test on Staphylococcus aureus [20] is 0.39 µg/mL; with Staphylococcus aureus [21], 0.78 µg/mL; in test [22], 3.125 µg/mL.
For `O=Cc1ccc(CO)o1` [AES-103], in the test on Candida albicans [23], the Activity was determined as 86%.
Regarding `NC1=N[C@]23CCCN2C(=O)c2[nH]c(Br)c(Br)c2[C@@H]3N1`, in the test with Escherichia coli, the Activity came to 50%.
With `COc1cc(-c2ccccn2)nc(/C=N/O)c1S(C)(=O)=O`, the MBIC was determined as 8 µg/mL with Acinetobacter baumannii [24] and 32 µg/mL in the test with Acinetobacter baumannii [25].
